Experimental data published in patent US10980818B2, “Methods for treating ocular inflammatory diseases” (SUN PHARMA GLOBAL FZE, priority 2009, dated 2021).

Experiment: Release of fluorometholone from the gel in the rabbit eye, measured in the aqueous humor
Assay type: in vivo
Details: measured by fluorometholone contained in the aqueous humor; from the gel of the aqueous polymer suspension
Experimental: The viscous gels that result from fluid eyedrops delivered by means of the aqueous suspensions of this invention have residence times in the eye ranging from about 2 to about 12 hours, e.g., from about 3 to about 6 hours. The active ingredients contained in these ophthalmically acceptable vehicles can be released from the gels at rates that depend on such factors as the active ingredient itself and its physical form, the extent of drug loading and the pH of the system, as well as on any drug delivery adjuvants, such as ion exchange resins compatible with the ocular surface, which can also be present.

CC(=O)[C@@]1(O)CC[C@H]2[C@@H]3C[C@H](C)C4=CC(=O)C=C[C@]4(C)[C@@]3(F)[C@@H](O)C[C@@]21C [fluorometholone]
Release rates in the rabbit eye: in excess of four hours
